Data published in patent US20260041639A1, “GEPOTIDACIN FORMULATION” (GLAXOSMITHKLINE INTELLECTUAL PROPERTY DEVELOPMENT LIMITED, priority 2022, published 2026).
≈ marks a conversion by molar mass, not a printed value.

Experiment: Solubility of API in water
Assay type: physicochemical
Conditions: 25 °C
Source text: The skilled reader will readily appreciate that the granules of the disclosure rapidly disperse. It is therefore apparent that the physical properties of the API and in particular its solubility will have no impact on the dispersion time.

Row | Structure (SMILES) | solubility
1 | C[C@H]1CO[C@@H]2Cn3cc(C(=O)NCc4ccc(F)cc4F)c(=O)c(O)c3C(=O)N12 [cabotegravir, (3R,6S)—N-[(2,4-difluorophenyl)methyl]-10-hydroxy-6-methyl-8,11-dioxo-4-oxa-1,7-diazatricyclo[7.4.0.03,7]trideca-9,12-diene-12-carboxamide] | 2.9 mg/mL (≈ 7.15 mM)
2 | O=c1ccc2ncc(=O)n3c2n1C[C@H]3CN1CCC(NCc2cc3c(cn2)OCCC3)CC1 [gepotidacin, (2R)-2-({4-[(3,4-Dihydro-2H-pyrano[2,3-c]pyridin-6-ylmethyl)amino]-1-piperidinyl}methyl)-1,2-dihydro-3H,8H-2a,5,8a-triazaacenaphthylene-3,8-dione] | 175 mg/mL (≈ 390 mM)
